Measured values: patent US6846845B2, “Heat shock protein inducer” (Eisai Co., Ltd., priority 2002, dated 2005)

Key:
Type in all cases: in vivo, rat
eNOS = eNOS induction in the heart after oral administration (Western blotting); details: oral 200 mg/kg, 24 hours after administration, FIG. 4(A)
Source text: (§1) Monoclonal IgG antibody cross-reactive to HSP70, HSP60 and HSP27 antibodies was purchased from Stressgen Biotechnologies Corporation ([…], Canada). Primary antibodies of nitric oxide synthase (NOS) or in other words inducible NOS (iNOS), endothelial NOS (eNOS) and neuronal NOS (nNOS) were purchased from Transduction Laboratories (Lexington, Ky.). The primary antibody of thioredoxin was kindly provided by Professor Yodoi of Kyoto University.
(§2) An emulsion of 100% by weight of geranylgeranylacetone (GGA) with 5% by weight of gum arabic and 0.008% by weight of tocopherol was given orally to the rats described above. The oral dosages were 50 mg/kg, 100 mg/kg, 200 mg/kg and 400 mg/kg (GGA groups). […] The vehicle was administered orally to the Control Group.
(§3) Next, the hearts were removed from the killed rats and frozen in liquid nitrogen. […]
(§4) The total protein concentration of the myocardium was quantified by the Bradford method (Bradford M M. A rapid and sensitive method for quantitation of microgram quantities of protein utilizing the principle of protein-dye binding. Anal Biochem 1976; 72:248-254). […] The proteins were detected by exposing the ECL cells with Hyperfilm (Amersham Pharmacia, Buckinghamshire, UK). Based on this, the amount of proteins on the immunoblots was quantified using National Institutes of Health (NIH) imaging software. […]

HSP70 = HSP70 induction in the heart after oral administration (Western blotting), Example 1
Method: Male Sprague-Dawley rats (220-250 g) were anesthetized with pentobarbital (20 mg/kg, i.p.). They were subjected to whole-body hyperthermia by soaking for 10 minutes in a bath in which the water temperature was maintained at 43° C. (Heat Stress Group), with their heads on pillows to avoid aspiration of water. rectal temperatures were measured as body temperatures rose throughout the whole-body hyperthermia.
as §2
To examine the time-dependent expression of HSP70, rats were killed by deep anesthesia with pentobarbital (50 mg/kg, i.v.) 6, 12, 24 and 48 hours after administration of the GGA or vehicle or 6, 12, 24 and 48 hours after heat stress.
(§5) Next, the hearts were removed from the killed rats and frozen in liquid nitrogen.
(§6) Western blotting was then performed (Maloyan A, Palmon A, Horowitz M. Heat acclimation increases the basal HSP70 level and alters its production dynamics during heat stress. Am J Physiol 1999; 276:R1506-R1515). The frozen hearts were homogenized with SDS (sodium dodecyl sulfate) buffer, centrifuged and boiled.
The total protein concentration of the myocardium was quantified by the Bradford method (Bradford M M. A rapid and sensitive method for quantitation of microgram quantities of protein utilizing the principle of protein-dye binding. Anal Biochem 1976; 72:248-254). The prepared hearts were then diluted in electrolyte buffer. Total protein in each heart was subjected to electrophoresis on 8.5% SDS-Polyacrylamide gel (SDS-PAGE), and transferred to a PVDF (polyvinylidene fluoride) membrane. After blocking with 0.5% nonfat milk, the PVDF membranes were incubated with antibodies. The proteins were detected by exposing the ECL cells with Hyperfilm (Amersham Pharmacia, Buckinghamshire, UK). Based on this, the amount of proteins on the immunoblots was quantified using National Institutes of Health (NIH) imaging software.

PKCδ = assay: Translocation of PKCδ in particulate and cytosolic heart fractions (Western immunoblotting); details: 24 h after GGA 200 mg/kg oral or vehicle; chelerythrine 5 mg/kg i.v. pretreatment, FIG. 10
PKC (α, β, γ and ε) = assay: Translocation of PKC isoforms α, β, γ and ε in particulate and cytosolic heart fractions (Western immunoblotting); details: 24 h after GGA 200 mg/kg oral or vehicle; chelerythrine 5 mg/kg i.v. pretreatment, FIG. 10
iNOS = iNOS induction in the heart after oral administration (Western blotting); details: oral 200 mg/kg, 24 hours after administration, FIG. 4(A)
Source text: as §1, §2, §3, §4

isolated perfused heart = assay: Isolated perfused heart experiments (Langendorff, no-flow global ischemia/reperfusion), Example 1; details: for amount of creatine kinase (CK) released during reperfusion versus Control Group: 30 min reperfusion, FIG. 6
Method: As mentioned above, 24 hours after administration of 200 mg/kg of GGA or the vehicle, rats were heparinized (500 IU/kg, i.p.) and anesthetized with pentobarbital (50 mg/kg, i.p.).
Each heart was isolated and reperfused using the Langendorff method with Krebs-Henseleit buffer (pH 7.4, [in mM] 118 NaCl, 4.7 KCl, 2.5 CaCl2, 1.2 MgSO4, 1.2 KH2PO4, 25.0 Na2HCO3, 11.0 glucose) equilibrated with a 95% O2, 5% CO2 gas mixture at 36.5° C., 75 mmHg (1.0×10^4 Pa).
A water-filled latex balloon was inserted through the mitral orifice into the left ventricle, and the left ventricular end diastolic pressure (LVEDP) was adjusted to 0-5 mmHg (0-667 Pa). During the first 10 minutes of constant pressure reperfusion, the perfusion flow rate was determined for each heart, and the hearts were then perfused at a determined perfusion rate using a microtube pump, during which time each heart was covered with water-jacketed glassware and humidity was maintained at 90% or more.
Normothermic no-flow global ischemia was performed for 20, 40 and 60 minutes, followed by reperfusion for 30 minutes. The coronary effluent from the 30-minute reperfusion period was collected for measurement of released creatine kinase (CK). The ratio of released CK to heart weight was analyzed by unpaired t-test.
The peak position and negative first derivaties of left ventricular pressure (dP/dt max and dP/dt min) were monitored using a pressure transducer. Left ventricular developed pressure (LVDP) was defined as the difference between left ventricular systolic and diastolic pressure. Coronary perfusion pressure (CPP) was calculated as the hydraulic pressure measured at the level of aortic cannulation. Changes in LVDP, CPP and dP/dt were analyzed by two-way analysis of variance (ANOVA), followed by the Bonferroni/Dunn test.
The LVDP, CPP and electrocardiogram were continuously recorded on a polygraph recorder (WS-681G, Nihon Koden, Tokyo), and stored on a PCM data recorder (RD-111T, TEAC, Tokyo) for later analysis.

HSP60 = HSP60 induction in the heart after oral administration (Western blotting); details: oral 200 mg/kg, 24 hours after administration, FIG. 3(B)
Method: as §2, §5, §6
as §4, with “72:248-254). The prepared hearts were then diluted in electrolyte buffer.” for “72:248-254).”

thioredoxin = assay: Thioredoxin induction in the heart after oral administration (Western blotting); details: oral 200 mg/kg, 24 hours after administration, FIG. 4(B)
Source text: as §1, §2, §3, §4

[1] = Observation of abnormalities (side-effects) during oral administration; details: rats, oral 50, 100, 200 and 400 mg/kg
Method: as §2

[2] = oral, 24 hours after administration, FIG. 2

## CC(=O)CCC=C(C)CCC=C(C)CCC=C(C)CCC=C(C)C [GGA, 6, 10, 14, 18-tetramethyl-5,9, 13, 17-nonadecatetraen-2-one]
eNOS
  eNOS induction in the heart: neither iNOS nor eNOS was induced
HSP70; oral 0-400 mg/kg, hearts removed 24 hours after administration, FIG. 2
  detected (induced) amount of HSP70 in the heart versus dosage: increased as the dosage increased
HSP70; oral 200 mg/kg, 48 hours after administration, FIG. 1
  detected amount of HSP70 in the heart after 48 hours: decreased
HSP70; oral 200 mg/kg, FIG. 1
  time at which the detected (induced) amount of HSP70 peaked: 24 h
  time from which HSP70 was detected in the heart: about 6 hours
HSP70; [2]
  detected amount of HSP70 above 400 mg/kg: No increase in detected amount was seen
  dosage at which HSP70 induction peaked: 200 mg/kg
PKCδ
  PKCδ in the particulate fraction / particulate/cytosol ratio versus CNT group: significant increase
PKC (α, β, γ and ε)
  PKC isoforms α, β, γ and ε in cytosolic and particulate fractions: not influenced
iNOS
  iNOS induction in the heart: neither iNOS nor eNOS was induced
Isolated perfused heart; 24 h after oral 200 mg/kg, printed 'after about 20-40 minutes of reperfusion', FIG. 5
  LVDP and dP/dt during reperfusion versus Control Group: remarkably better
Isolated perfused heart; 24 h after oral 200 mg/kg, printed 'after about 60 minutes of reperfusion', FIG. 5
  functional recovery (LVDP, dP/dt) versus Control Group: no great difference
Isolated perfused heart; ischemic period 20 or 40 minutes
  amount of creatine kinase (CK) released during reperfusion versus Control Group: much less
Isolated perfused heart; ischemic period 60 minutes
  amount of creatine kinase (CK) released during reperfusion versus Control Group: no great difference
HSP60
  HSP60 expression versus control group: significantly decreased
thioredoxin
  thioredoxin induction in the heart: not induced
[1]
  abnormalities (side-effects) during administration: No particular abnormalities (side-effects) were observed
